Reference: ChEMBL document CHEMBL3091394, “Novel tacrine-ebselen hybrids with improved cholinesterase inhibitory, hydrogen peroxide and peroxynitrite scavenging activity” (Bioorg Med Chem Lett, 2013)
Active and inactive are the calls of the source. No cut-off for these calls is given here.

Legend:
Cholinesterase = Cholinesterase (Equus caballus, UniProt P81908)
Description: Inhibition of equine serum BuChE using butylthiocholine chloride as substrate preincubated for 15 mins by Ellman's method

Acetylcholinesterase [1] = target: Acetylcholinesterase (Electrophorus electricus, UniProt O42275)
Description: Inhibition of electric eel AChE using acetylthiocholine chloride as substrate preincubated for 15 mins by Ellman's method

[2] = Antioxidant activity assessed as pyrogallol red dye bleaching-induced peroxynitrite scavenging activity up to 62.5 uM relative to ebselen; assay type: functional
[3] = Antioxidant activity assessed as hydrogen peroxide radical scavenging activity at 25 uM after 10 hrs by horseradish peroxidase assay; assay type: functional
[4] = Antioxidant activity assessed as hydrogen peroxide radical scavenging activity at 12.5 uM after 10 hrs by horseradish peroxidase assay; assay type: functional
Acetylcholinesterase [5] = target: Acetylcholinesterase (Homo sapiens, UniProt P22303); test: Inhibition of human AChE using acetylthiocholine chloride as substrate preincubated for 15 mins by Ellman's method
Sequence of Acetylcholinesterase (Homo sapiens, UniProt P22303) (P22303 whole entry): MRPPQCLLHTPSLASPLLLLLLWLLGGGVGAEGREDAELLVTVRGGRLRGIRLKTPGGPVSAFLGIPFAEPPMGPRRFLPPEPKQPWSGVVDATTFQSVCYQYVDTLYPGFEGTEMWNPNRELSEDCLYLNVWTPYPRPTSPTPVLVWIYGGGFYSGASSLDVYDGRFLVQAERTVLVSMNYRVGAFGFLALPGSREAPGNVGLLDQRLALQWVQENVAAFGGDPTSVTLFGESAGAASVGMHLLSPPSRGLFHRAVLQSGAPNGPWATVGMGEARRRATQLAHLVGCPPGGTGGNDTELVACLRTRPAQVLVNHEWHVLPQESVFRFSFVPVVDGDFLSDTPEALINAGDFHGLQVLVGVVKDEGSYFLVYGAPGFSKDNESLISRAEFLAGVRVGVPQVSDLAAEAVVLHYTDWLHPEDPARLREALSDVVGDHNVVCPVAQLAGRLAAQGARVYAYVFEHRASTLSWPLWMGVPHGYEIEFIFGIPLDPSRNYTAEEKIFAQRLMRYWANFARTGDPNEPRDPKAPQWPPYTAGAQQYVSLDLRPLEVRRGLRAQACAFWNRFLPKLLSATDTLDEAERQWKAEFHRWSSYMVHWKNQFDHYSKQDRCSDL

[6] = Antioxidant activity assessed as hydrogen peroxide radical scavenging activity at 20 to 100 uM after 10 hrs by horseradish peroxidase assay; assay type: functional
[7] = Cytotoxicity against human HSC assessed as cell viability at 5 to 10 uM after 24 hrs by MTT assay

Sequence of Cholinesterase (P81908 whole entry): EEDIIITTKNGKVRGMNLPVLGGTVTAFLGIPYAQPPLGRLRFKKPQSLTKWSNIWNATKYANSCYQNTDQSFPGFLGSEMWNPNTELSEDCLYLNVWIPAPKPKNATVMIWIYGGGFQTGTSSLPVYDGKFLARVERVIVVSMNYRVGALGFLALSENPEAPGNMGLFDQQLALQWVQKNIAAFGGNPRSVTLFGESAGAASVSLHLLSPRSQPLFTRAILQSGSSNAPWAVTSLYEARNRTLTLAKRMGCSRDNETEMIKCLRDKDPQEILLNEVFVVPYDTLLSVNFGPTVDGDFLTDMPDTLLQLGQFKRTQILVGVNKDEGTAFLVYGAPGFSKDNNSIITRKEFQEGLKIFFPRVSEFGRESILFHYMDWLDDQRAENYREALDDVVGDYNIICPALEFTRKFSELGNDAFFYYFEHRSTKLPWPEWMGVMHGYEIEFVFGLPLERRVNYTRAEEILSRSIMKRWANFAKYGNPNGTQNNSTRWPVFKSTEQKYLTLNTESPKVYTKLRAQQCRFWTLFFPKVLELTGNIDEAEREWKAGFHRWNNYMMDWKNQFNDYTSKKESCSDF
Sequence of Acetylcholinesterase (Electrophorus electricus, UniProt O42275) (O42275 whole entry): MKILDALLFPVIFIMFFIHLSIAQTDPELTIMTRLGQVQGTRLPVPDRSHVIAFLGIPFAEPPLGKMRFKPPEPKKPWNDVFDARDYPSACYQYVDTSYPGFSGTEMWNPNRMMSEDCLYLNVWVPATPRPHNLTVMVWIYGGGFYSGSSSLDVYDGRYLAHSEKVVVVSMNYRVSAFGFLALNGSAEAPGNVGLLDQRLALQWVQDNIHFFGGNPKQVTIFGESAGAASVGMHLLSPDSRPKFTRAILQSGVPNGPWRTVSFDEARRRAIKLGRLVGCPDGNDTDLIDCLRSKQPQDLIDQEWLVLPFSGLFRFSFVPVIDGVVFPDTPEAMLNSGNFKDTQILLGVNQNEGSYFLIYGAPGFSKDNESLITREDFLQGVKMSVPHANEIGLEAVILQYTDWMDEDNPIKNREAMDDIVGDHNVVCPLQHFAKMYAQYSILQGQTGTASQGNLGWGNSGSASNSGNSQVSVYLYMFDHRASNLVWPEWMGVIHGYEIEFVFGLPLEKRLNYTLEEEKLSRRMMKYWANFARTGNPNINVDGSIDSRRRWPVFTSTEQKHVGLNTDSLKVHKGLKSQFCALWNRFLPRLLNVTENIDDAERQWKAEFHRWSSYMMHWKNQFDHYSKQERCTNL

| SMILES | IC50 (Cholinesterase) [µM] | IC50 (Acetylcholinesterase [1]) [µM] | Ratio [2] | Activity [3] [%] | Activity [4] | IC50 (Acetylcholinesterase [5]) [µM] | Activity [6] | Activity [7] |
| --- | --- | --- | --- | --- | --- | --- | --- | --- |
| O=c1c2ccccc2[se]n1CCCCCNc1c2c(nc3ccccc13)CCCC2 | 0.00452 | 0.0708 | – | – | – | – | – | – |
| O=c1c2ccccc2[se]n1CCCCCCCCNc1c2c(nc3ccccc13)CCCC2 | 0.0166 | 0.0241 | – | – | – | – | – | – |
| O=c1c2ccccc2[se]n1CCCCNc1c2c(nc3ccccc13)CCCC2 | 0.00494 | 0.152 | – | – | – | – | – | – |
| O=c1c2ccccc2[se]n1CCCCCCNc1c2c(nc3ccccc13)CCCC2 | 0.00437 | 0.00632 | 1.17 | 70 | Active | 0.0195 | Active | – |
| O=c1c2ccccc2[se]n1CCCCCCCCCNc1c2c(nc3ccccc13)CCCC2 | 0.0258 | 0.032 | – | – | – | – | – | – |
| O=c1c2ccccc2[se]n1CCNc1c2c(nc3ccccc13)CCCC2 | 0.0389 | 0.657 | – | – | – | – | – | – |
| O=c1c2ccccc2[se]n1CCCCCCCNc1c2c(nc3ccccc13)CCCC2 | 0.014 | 0.0265 | – | – | – | – | – | – |
| COc1cc2[se]n(CCCCCCNc3c4c(nc5ccccc35)CCCC4)c(=O)c2cc1OC | 0.0028 | 0.00255 | 1.26 | 83.7 | Active | 0.0151 | Active | Non-toxic |
| O=c1c2ccccc2[se]n1-c1ccccc1 | – | – | – | 89.7 | Active | – | Active | – |
| O=c1c2ccccc2[se]n1CCCNc1c2c(nc3ccccc13)CCCC2 | 0.0285 | 0.423 | – | – | – | – | – | – |
| c1ccc2c(NCCCCCCCNc3c4c(nc5ccccc35)CCCC4)c3c(nc2c1)CCCC3 | 0.00408 | 0.00017 | – | – | – | – | – | – |
